1 compound from US20110028422A1 (priority 2007, published 2011) can be followed below.

For one experiment, the system named is H2AX. Put plainly: CLB-induced H2AX. It is filed as cell-based.
Another experiment concerns CLL lymphocytes. Briefly: MTT cytotoxic assay, CLB sensitization (Example I). It is filed as cell-based, human. The following applies: MTT 72 h.
Another experiment deals with NFκB pathway. Put plainly: NFκB pathway regulation. It is filed as cell-based. As to conditions: c-abl inhibition; B-CLL lymphocytes.

Description for CLL lymphocytes: Aliquots containing 1×10^6 cells/ml are sent for T-lymphocyte analysis. The percentage of contaminating T lymphocytes is determined using fluorescence-activated cell sorting analysis with CD3 antibody. […] A-2) Plating Efficiency and Dosing. […] Only dose responses with linear plating efficiencies are analyzed. […] A-3) Cytotoxic Assay. […] The percentage of surviving cells after treatment respect to vehicle treated cells (control) is calculated as (OD treated cells/OD untreated cells)×100. […] A-4) Statistical Analysis Differences between mean values is assessed by two tailed t-test. Correlation and linear regression analysis are performed using the EXCEL Statistical Tool Package.

Turning to `Cc1cn(-c2cc(NC(=O)c3ccc(C)c(Nc4nccc(-c5cccnc5)n4)c3)cc(C(F)(F)F)c2)cn1` [Nilotinib, 4-methyl-3-[[4-(3-pyridinyl)-2-pyrimidinyl]amino]-N-[5-(4-methyl-1H-imidazol-1-yl)-3-(trifluoromethyl)phenyl]benzamide], in the experiment on H2AX, the “CLB-induced □ H2AX” value is on record as “increased”. Besides, the “samples in which potency in sensitizing CLL lymphocytes towards chlorambucil was greater than imatinib” value in the experiment on CLL lymphocytes is on record as 16/19. Further, the NFκB pathway entry with NFκB pathway is “down regulation”.
